From patent US11912650B2, “Bakuchiol derivatives, pharmaceutically acceptable salts thereof, and preparation method and use of the same” (priority 2020, dated 2024) come the findings set out here.

Converted amounts (≈) assume the structure as drawn.

Series [1] has as its system S. aureus ATCC29213. Description: Antibacterial activity assay (broth dilution MIC). To be noted: Staphylococcus aureus, 37° C., 24 h, compounds 38, 44-45, 58-61, 63-64 with 0.05% Tween 80. The class given is cell-based. As to the method: (§1) Antibacterial activity assay. The antibacterial activities of all the compounds were determined according to a broth dilution method specified in Clinical and Laboratory Standards Institute (CLSI) guidelines. Bacterial cells were inoculated on a Mueller-Hinton agar (MHA) plate for overnight culture, and the concentration of the bacterial cells was adjusted to about 1×10^6 colony-forming units (CFU)/mL with phosphate buffered saline (PBS). First, a 1000 μg/mL stock solution (a final concentration of dimethyl sulfoxide (DMSO) was ≤2%) was prepared by dissolving a sample in DMSO/H2O. Then, the stock solution was diluted with Mueller-Hinton Broth (MHB) to an initial concentration of 100 μg/mL, and the sample solution (100 μL) was subjected to two-fold gradient dilution with MHB in a 96-well plate, to obtain 100 μg/mL to 0.78 μg/mL serial dilutions. Then, a bacterial suspension (100 μL) was added to each well of the 96-well plate and mixed with the test sample solution (100 μL). Among them, test systems for compounds 38, 44-45, 58-61 and 63-64 contained 0.05% of Tween 80. Finally, the 96-well plate was incubated at 37° C. for 24 hours. Absorbances at 600 nm at 0 and 24 h were measured. An minimum inhibitory concentration (MIC) value was defined as the lowest concentration where no visible bacterial growth occurred. All experiments were carried out in at least two duplicates, and biological repeatability could be achieved.
(In general: Dilution methods test growth across graded concentrations, often in twofold steps.)

A further series has as its system E. coli ATCC25922. Description: Antibacterial activity assay (broth dilution MIC). The format is cell-based. The following applies: Escherichia coli, 37° C., 24 h, compounds 38, 44-45, 58-61, 63-64 with 0.05% Tween 80. As to the method:
as §1

A further series concerns MRSA N315. Description: Antibacterial activity assay (broth dilution MIC). The class given is cell-based, methicillin-resistant Staphylococcus aureus. The following applies: Staphylococcus aureus, 37° C., 24 h, compounds 38, 44-45, 58-61, 63-64 with 0.05% Tween 80. As to the method: as §1
For the next series, the system named is MRSA NCTC10442. Kind of series: Antibacterial activity assay (broth dilution MIC). The format is cell-based, methicillin-resistant Staphylococcus aureus. To be noted: Staphylococcus aureus, 37° C., 24 h, compounds 38, 44-45, 58-61, 63-64 with 0.05% Tween 80. As to the method: as §1
A further series concerns Gram-positive bacteria. Kind of series: Antibacterial activity against Gram-positive bacteria (MIC summary). The class given is cell-based. The following applies: 24 h; summary of tables 1 and 2; read-out: minimum inhibitory concentration (MIC) against Gram-positive bacteria. As to the method:
as §1

The next series relates to Gram-negative bacteria. Description: Antibacterial activity against Gram-negative bacteria (MIC summary). To be noted: 24 h; summary of tables 1 and 2. The class given is cell-based. As to the method: as §1
Series [2] relates to S. aureus ATCC29213. Kind of series: Evaluation of development tendency of drug resistance. To be noted: S. aureus ATCC29213, passage at 0.5×MIC. The format is cell-based. As to the method: Evaluation of development tendency of drug resistance. Initial MIC values of compound 60, norfloxacin and gatifloxacin against S. aureus ATCC29213 were obtained by the above MIC determination method. Bacterial cells in a 96-well plate with a concentration of 0.5×MIC were taken out to prepare a bacterial suspension (about 1×10^6 CFU/mL) for the next MIC value determination. After incubating the sample at 37° C. for 24 hours, the change in the MIC value of each compound was measured. This experiment was carried out consecutively for 15 days.

The next series concerns rabbit red blood cells. Kind of series: Hemolytic activity assay. The class given is cell-based. The following applies: rabbit red blood cells, 37° C., 1 hour. As to the method:
Hemolytic activity assay. Rabbit red blood cells were centrifuged at 2500 rpm for 3 minutes and then washed twice with PBS. Subsequently, a 8% (v/v) cell suspension was prepared by resuspending the rabbit red blood cells with PBS. A sample was first dissolved in DMSO or PBS (a final concentration of DMSO was ≤0.5%), and then diluted with PBS to prepare two-fold gradient dilutions (400 μg/mL to 3.125 μg/mL). The rabbit red blood cell suspension ([…]) was mixed with the two-fold gradient dilutions ([…]) of the sample. Then, the mixture was added to a sterile 96-well plate, incubated at 37° C. for 1 hour, and then centrifuged at 2500 rpm for 5 minutes. Among them, test systems for compounds 38, 44-45, 58-61 and 63-64 contained 0.05% of Tween 80. The supernatant (100 μL) was transferred to a new 96-well plate. Absorbance at 576 nm was measured using a Biotek multifunctional microplate reader. The positive control group was treated with a 2% Triton X-100 solution, and the negative control group was treated with PBS or 0.5% DMSO. The hemolytic activity was calculated by the following equation: % hemolytic activity=[(Abssample−Absnegative control)/(Abspositive control−Absnegative control)]×100. All experiments were carried out in at least two duplicates, and biological repeatability could be achieved.

For the molecule `C=C[C@](C)(/C=C/c1ccc(OCC(=O)N[C@@H](CCCNC(=N)N)C(=O)N[C@@H](CCCNC(=N)N)C(=O)N[C@@H](CCCNC(=N)N)C(=O)N2CCN(c3ccc(N4C[C@H](CNC(C)=O)OC4=O)cc3F)CC2)cc1)CCC=C(C)C` [Compound 63], the MIC with S. aureus ATCC29213 [1] is 0.78 µg/mL (≈ 0.708 µM); with E. coli ATCC25922, 3.12 µg/mL (≈ 2.84 µM); in the series with MRSA N315, 0.78 µg/mL (≈ 0.708 µM); in the series with MRSA NCTC10442 it was 0.78 µg/mL (≈ 0.708 µM); in the series on Gram-positive bacteria, 0.39 to 3.12 µg/mL (≈ 0.354 to 2.84 µM); with Gram-negative bacteria it was 1.56 to 3.12 µg/mL (≈ 1.42 to 2.84 µM).

`CCn1cc(C(=O)O)c(=O)c2cc(F)c(N3CCNCC3)cc21` [norfloxacin, reference compound]: in the series with S. aureus ATCC29213 [2], the “change in MIC value after 15 days of continuous passage” value is recorded as 16 fold.

For the molecule `C=C[C@@](C)(/C=C/c1ccc(OCCCCNCCCC)cc1)CCC=C(C)C` [Compound 15], the MIC in the series with S. aureus ATCC29213 [1] was 1.56 µg/mL (≈ 4.07 µM); against E. coli ATCC25922, 12.5 µg/mL (≈ 32.6 µM); with MRSA N315, 1.56 µg/mL (≈ 4.07 µM); against MRSA NCTC10442, 1.56 µg/mL (≈ 4.07 µM); in the series with Gram-positive bacteria, 0.39 to 3.12 µg/mL (≈ 1.02 to 8.15 µM).

Consider `C=C[C@@](C)(/C=C/c1ccc(OCCCCNC(=N)N)cc1)CCC=C(C)C` [Compound 35], for which the MIC was 3.12 µg/mL (≈ 8.46 µM) against S. aureus ATCC29213 [1]; 25 µg/mL (≈ 67.6 µM) in the series with E. coli ATCC25922; 1.56 µg/mL (≈ 4.22 µM) with MRSA N315; 3.12 µg/mL (≈ 8.46 µM) with MRSA NCTC10442; 0.39 to 3.12 µg/mL (≈ 1.06 to 8.46 µM) with Gram-positive bacteria.

As to `C=C[C@@](C)(/C=C/c1ccc(OCCCCN(CCCN(C)C)CCCN(C)C)cc1)CCC=C(C)C` [Compound 28], the MIC with S. aureus ATCC29213 [1] was 1.56 µg/mL (≈ 3.13 µM); in the series on E. coli ATCC25922, 3.12 µg/mL (≈ 6.28 µM); with MRSA N315 it was 1.56 µg/mL (≈ 3.13 µM); against MRSA NCTC10442, 1.56 µg/mL (≈ 3.13 µM); in the series on Gram-positive bacteria, 0.39 to 3.12 µg/mL (≈ 0.783 to 6.28 µM); in the series with Gram-negative bacteria, 1.56 to 3.12 µg/mL (≈ 3.13 to 6.28 µM). In addition, the “HC50 (concentration necessary to lyse 50% rabbit red blood cells)” value in the series with rabbit red blood cells was 112.9 ± 5.0 µg/mL.

With `C=C[C@@](C)(/C=C/c1ccc(OCCCCN2CCN(CCCN(C)C)CC2)cc1)CCC=C(C)C` [Compound 23], the MIC against S. aureus ATCC29213 [1] is 1.56 µg/mL (≈ 3.24 µM); against E. coli ATCC25922 it was 3.12 µg/mL (≈ 6.49 µM); in the series with MRSA N315 it was 0.78 µg/mL (≈ 1.62 µM); against MRSA NCTC10442, 3.12 µg/mL (≈ 6.49 µM); with Gram-positive bacteria it was 0.39 to 3.12 µg/mL (≈ 0.81 to 6.49 µM); against Gram-negative bacteria, 1.56 to 3.12 µg/mL (≈ 3.24 to 6.49 µM).

Regarding `C=C[C@](C)(/C=C/c1ccc(OCC(=O)N[C@@H](CCCNC(=N)N)C(=O)NCCCN(CC)CC)cc1)CCC=C(C)C` [Compound 52], the MIC in the series with S. aureus ATCC29213 [1] was 1.56 µg/mL (≈ 2.68 µM); against E. coli ATCC25922, 25 µg/mL (≈ 42.9 µM); in the series on MRSA N315, 0.78 µg/mL (≈ 1.34 µM); against MRSA NCTC10442 it was 0.78 µg/mL (≈ 1.34 µM); with Gram-positive bacteria, 0.39 to 3.12 µg/mL (≈ 0.669 to 5.36 µM).

With `C=C[C@@](C)(/C=C/c1ccc(OCCCCN(C)CCCN(C)C)cc1)CCC=C(C)C` [Compound 26], the MIC against S. aureus ATCC29213 [1] was 1.56 µg/mL (≈ 3.66 µM); against E. coli ATCC25922 it was 3.12 µg/mL (≈ 7.32 µM); against MRSA N315, 1.56 µg/mL (≈ 3.66 µM); against MRSA NCTC10442, 3.12 µg/mL (≈ 7.32 µM); with Gram-positive bacteria, 0.39 to 3.12 µg/mL (≈ 0.914 to 7.32 µM); in the series on Gram-negative bacteria it was 1.56 to 3.12 µg/mL (≈ 3.66 to 7.32 µM).
